Test results taken from patent publication EP0406122A1, “Process for obtaining a native, wild-type human oestrogen receptor and its applications” (ASSOCIATION POUR LE DEVELOPPEMENT DE LA RECHERCHE EN …, priority 1989, dated 1991).

Biological target: T1, hER Gly-400 (HEGO) (Homo sapiens, UniProt P03372)
T1 construct: expressed in transfected cells; host or cells: HeLa
T1 sequence (P03372 1-595): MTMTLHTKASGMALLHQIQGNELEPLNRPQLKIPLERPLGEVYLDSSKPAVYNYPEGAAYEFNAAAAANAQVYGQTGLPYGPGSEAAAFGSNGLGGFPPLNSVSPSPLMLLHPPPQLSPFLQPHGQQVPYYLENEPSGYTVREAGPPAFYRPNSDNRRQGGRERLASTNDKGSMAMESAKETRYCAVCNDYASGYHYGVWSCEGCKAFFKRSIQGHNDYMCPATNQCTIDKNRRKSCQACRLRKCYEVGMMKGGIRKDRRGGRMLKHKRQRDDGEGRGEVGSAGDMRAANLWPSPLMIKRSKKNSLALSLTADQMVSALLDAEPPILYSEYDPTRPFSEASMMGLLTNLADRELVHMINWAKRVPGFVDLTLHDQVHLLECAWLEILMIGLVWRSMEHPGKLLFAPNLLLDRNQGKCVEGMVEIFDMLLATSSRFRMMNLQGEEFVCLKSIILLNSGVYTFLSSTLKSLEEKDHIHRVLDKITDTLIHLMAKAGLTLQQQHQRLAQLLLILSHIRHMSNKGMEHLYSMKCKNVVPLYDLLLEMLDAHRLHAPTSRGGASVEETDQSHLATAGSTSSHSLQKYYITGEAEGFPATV
Assay: transcription activation, vit-tk-CAT reporter in HeLa cells transfected with HEGO
Assay type: cell-based, humain
Settings: 10⁻⁷ M ICI 164,384 in the presence of 10⁻⁸ M oestradiol, CAT activity
Description: On a transfecté des cellules Hela avec 50 ng de vecteurs d'expression de Er humain ou de Er de poulet comme indiqué, conjointement avec 1 µg de plasmide "reporter" vit-tk-cat, et le plasmide pCH 110 de contrôle interne de l'expression de la béta-galactosidase (3µg) et de l'ADN transporteur (Bluescribe M13+) pour un total de 20 µg d'ADN.
• A) Des cellules HeLa ont été transfectées avec 10 ng des vecteurs d'expression de l'hER correspondant, HEO (colonnes 1-5), ou HEGO (colonnes 6-10), conjointement avec 1 µG de plasmide "reporter" vit-tk-CAT, 3 µG du plasmide de contrôle de la béta-galactosidase pCH110 et avec de l'ADN Bluescribe M13+ pour un total d'ADN de 20 µg. […] 2 heures plus tard on a récolté les cellules […] et un dosage de la béta-galactosidase a été effectué.

CCCCN(C)C(=O)CCCCCCCCCC[C@@H]1Cc2cc(O)ccc2[C@H]2CC[C@]3(C)[C@@H](O)CC[C@H]3[C@H]12 [ICI 164,384]
effet sur l'induction à l'oestradiol: très peu d'effet
